Here are results for two compounds from BindingDB's records for doi:10.1016/j.ejmech.2017.04.043 (University of Illinois At Chicago, 2017).

The target of this experiment is T1, Gamma-aminobutyric acid receptor subunit alpha-1/beta-2/gamma-2 (Homo sapiens, UniProt P14867+P18507+P47870).
T1 sequence (P14867 whole entry): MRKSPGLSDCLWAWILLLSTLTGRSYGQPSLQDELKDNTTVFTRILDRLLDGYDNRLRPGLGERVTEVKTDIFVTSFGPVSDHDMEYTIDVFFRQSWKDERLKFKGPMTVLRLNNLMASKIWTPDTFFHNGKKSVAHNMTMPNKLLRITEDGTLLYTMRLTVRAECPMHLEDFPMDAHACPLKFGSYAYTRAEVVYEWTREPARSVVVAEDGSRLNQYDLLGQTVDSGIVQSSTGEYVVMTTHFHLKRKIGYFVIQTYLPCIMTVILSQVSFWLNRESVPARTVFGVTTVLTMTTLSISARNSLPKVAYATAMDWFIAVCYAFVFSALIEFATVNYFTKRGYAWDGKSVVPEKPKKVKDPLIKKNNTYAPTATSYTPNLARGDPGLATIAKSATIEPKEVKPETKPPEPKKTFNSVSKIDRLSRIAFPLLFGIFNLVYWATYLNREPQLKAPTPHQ
T1 sequence (P18507 whole entry): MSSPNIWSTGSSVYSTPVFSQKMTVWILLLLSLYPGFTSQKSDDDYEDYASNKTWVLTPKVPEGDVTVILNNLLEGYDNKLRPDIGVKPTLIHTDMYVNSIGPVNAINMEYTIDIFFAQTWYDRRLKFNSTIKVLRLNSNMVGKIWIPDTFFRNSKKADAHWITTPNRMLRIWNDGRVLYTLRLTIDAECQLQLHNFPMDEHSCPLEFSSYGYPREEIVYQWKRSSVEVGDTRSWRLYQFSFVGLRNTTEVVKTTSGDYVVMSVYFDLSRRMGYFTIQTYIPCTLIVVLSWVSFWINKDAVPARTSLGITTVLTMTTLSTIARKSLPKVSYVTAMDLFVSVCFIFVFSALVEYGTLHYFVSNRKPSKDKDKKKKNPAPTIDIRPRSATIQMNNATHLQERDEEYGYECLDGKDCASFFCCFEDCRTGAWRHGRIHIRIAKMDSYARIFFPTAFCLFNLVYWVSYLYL
T1 sequence (P47870 whole entry): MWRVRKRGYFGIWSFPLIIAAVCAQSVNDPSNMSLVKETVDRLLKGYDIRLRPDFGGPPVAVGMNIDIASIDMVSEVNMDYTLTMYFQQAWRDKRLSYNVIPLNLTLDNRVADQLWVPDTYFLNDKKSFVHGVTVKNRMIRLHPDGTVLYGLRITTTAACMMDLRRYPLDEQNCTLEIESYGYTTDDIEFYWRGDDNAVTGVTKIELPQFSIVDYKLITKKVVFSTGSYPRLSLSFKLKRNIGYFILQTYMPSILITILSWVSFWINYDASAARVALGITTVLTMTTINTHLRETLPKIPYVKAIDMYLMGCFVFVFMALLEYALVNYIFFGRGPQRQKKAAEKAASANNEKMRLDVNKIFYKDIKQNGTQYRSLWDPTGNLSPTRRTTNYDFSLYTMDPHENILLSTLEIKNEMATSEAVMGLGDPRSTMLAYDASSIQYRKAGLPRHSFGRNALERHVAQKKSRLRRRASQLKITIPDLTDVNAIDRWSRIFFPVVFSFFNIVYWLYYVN
The experiment can be described thus: Positive allosteric modulation of human GABAA receptor alpha1beta2gamma2L expressed in Xenopus laevis oocytes assessed as potentiation of GABA-induced current by measuring GABA EC50 at 1.4 uM incubated for 15 to 25 secs by two-electrode voltage clamp assay (Rvb = […]). In general terms: In two-electrode clamp one electrode senses voltage and the other passes current.

With `CC(=O)[C@H]1CC[C@H]2[C@@H]3CC[C@H]4C[C@H](O)CC[C@]4(C)[C@H]3[C@@H](OC(=O)c3c(F)c(F)c(N=[N+]=[N-])c(F)c3F)C[C@]12C`, the “EC50” value turned out to be 70 nM.

Take `CC(=O)[C@H]1CC[C@H]2[C@@H]3CC[C@H]4C[C@H](O)CC[C@]4(C)[C@H]3C3(C[C@]12C)N=N3`: the “EC50” value came out at 1230 nM.

By EC50 is commonly meant the concentration giving half of the maximal effect.
